Assay results reported in PubChem BioAssay (NCI).
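Each compound was tested at five concentrations against cells in 96-well plates for 48 hours. GI50 = concentration required for 50% inhibition of growth. TGI: concentration producing complete growth inhibition.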

How the values were obtained:
Test in all cases: DTP human tumour cell line panel, 48 h
T-47D breast = tested on: T-47D breast
IGROV1 ovarian = tested on: IGROV1 ovarian
RXF 393 renal = tested on: RXF 393 renal
ACHN renal = tested on: ACHN renal
UO-31 renal = tested on: UO-31 renal
SW-620 colon = tested on: SW-620 colon
PC-3 prostate = tested on: PC-3 prostate
NCI-H226 lung = tested on: NCI-H226 lung
OVCAR-8 ovarian = tested on: OVCAR-8 ovarian
SK-MEL-5 melanoma = tested on: SK-MEL-5 melanoma

| SMILES | GI50 (T-47D breast) | TGI (T-47D breast) | GI50 (IGROV1 ovarian) | TGI (IGROV1 ovarian) | GI50 (RXF 393 renal) | TGI (RXF 393 renal) | GI50 (ACHN renal) | TGI (ACHN renal) | GI50 (UO-31 renal) | TGI (UO-31 renal) | GI50 (SW-620 colon) | TGI (SW-620 colon) | GI50 (PC-3 prostate) | TGI (PC-3 prostate) | GI50 (NCI-H226 lung) | TGI (NCI-H226 lung) | GI50 (OVCAR-8 ovarian) | TGI (OVCAR-8 ovarian) | GI50 (SK-MEL-5 melanoma) | TGI (SK-MEL-5 melanoma) |
| --- | --- | --- | --- | --- | --- | --- | --- | --- | --- | --- | --- | --- | --- | --- | --- | --- | --- | --- | --- | --- |
| CCN(CC)c1ccc(C(=C2C=CC(=[N+](CC)Cc3cccc(S(=O)(=O)O)c3)C=C2)c2ccc(N(CC)Cc3cccc(S(=O)(=O)O)c3)cc2)cc1 | 3.14 µM | > 29.3 µM | 13.3 µM | > 100 µM | 7.94 µM | 76.1 µM | 9.48 µM | > 68.5 µM | 16.3 µM | > 91.9 µM | 4.45 µM | > 100 µM | 6.87 µM | > 66.3 µM | 9.07 µM | > 90.2 µM | 4.8 µM | > 100 µM | 10.1 µM | 24.1 µM |
| COc1ccc(-c2ccc(/C=N/n3c(COc4ccc(Cl)cc4Cl)n[nH]c3=S)o2)c([N+](=O)[O-])c1 | 44 µM | > 100 µM | 38.7 µM | > 100 µM | 16.6 µM | 40.2 µM | 45.3 µM | > 100 µM | 43.9 µM | > 100 µM | 30.7 µM | 97.6 µM | 19.4 µM | 47.1 µM | 2.52 µM | 11.9 µM | 29.7 µM | > 100 µM | – | – |
| N#Cc1cnc2cc(OC[C@H](O)CO)c(NC(=O)CC3CSSC3)cc2c1Nc1ccc(OCc2cccc(F)c2)c(Cl)c1 | 0.575 µM | 1.47 µM | 0.446 µM | 1.39 µM | 0.987 µM | 1.85 µM | 1.73 µM | 5.42 µM | 2.11 µM | 7.75 µM | 0.698 µM | 1.58 µM | 0.162 µM | 0.451 µM | 0.335 µM | 1.49 µM | 1.02 µM | 2.28 µM | 0.841 µM | 1.59 µM |
| C[C@H](Nc1ncnc2nc[nH]c12)c1cc2cccc(Cl)c2c(=O)n1-c1ccccc1 | 1.58 µM | > 43.5 µM | 1.58 µM | 7.51 µM | 0.273 µM | 9.41 µM | 5 µM | > 100 µM | 1.67 µM | > 75.3 µM | 36.5 µM | > 100 µM | 2.39 µM | > 100 µM | > 77.4 µM | > 100 µM | 27 µM | > 100 µM | 25.8 µM | > 100 µM |
| Cc1ccc2c(ccc3c[n+]4c5ccccc5ccc4n32)c1 | 0.618 µM | 3.59 µM | 1.52 µM | 18.6 µM | 2.52 µM | 8.81 µM | 4.12 µM | > 100 µM | 5.42 µM | 54 µM | 0.508 µM | 10.7 µM | 0.946 µM | 10.4 µM | 2.43 µM | 10.4 µM | 0.688 µM | 9.72 µM | 1.01 µM | 2.33 µM |
| CNC(=O)c1cncc(/C=C/c2ccccc2C)c1 | > 25 µM | > 25 µM | > 25 µM | > 25 µM | > 25 µM | > 25 µM | > 25 µM | > 25 µM | > 25 µM | > 25 µM | > 25 µM | > 25 µM | > 25 µM | > 25 µM | > 25 µM | > 25 µM | > 25 µM | > 25 µM | > 25 µM | > 25 µM |
| Cc1[c-]onc1C.Cc1[c-]onc1C.[Ag].[Ag].[NH-]S(=O)(=O)c1ccc(N=Nc2cc(N=Nc3ccc(S([NH-])(=O)=O)cc3)c3c(NC(=O)C(Cl)Cl)cccc3c2OC(=O)C(Cl)Cl)cc1 | 2.1 µM | 17.4 µM | 6.53 µM | 26.4 µM | 6.47 µM | 15.6 µM | 5.13 µM | 11.9 µM | 6.06 µM | 12.8 µM | 3.54 µM | 12.8 µM | 6.82 µM | > 50 µM | 12.6 µM | > 50 µM | 10.1 µM | 36.4 µM | 1.71 µM | 6.07 µM |
| CC(C)(C)C#CC1=C(Br)C(=O)OC1 | 16.5 µM | 66.8 µM | 4.97 µM | 23.2 µM | 2.44 µM | 6.8 µM | 0.266 µM | – | 0.9 µM | 3.22 µM | – | > 24.9 µM | 2.39 µM | 11.2 µM | 23 µM | 68.1 µM | 2.54 µM | 12.7 µM | > 100 µM | > 100 µM |
| Cc1ccc(/C=C2\CN(C(=O)OC(C)(C)C)C/C(=C\c3ccc(C)cc3)C2=O)cc1 | – | > 100 µM | 0.367 µM | > 100 µM | 0.0625 µM | 4.36 µM | 1.06 µM | > 100 µM | 1.16 µM | > 100 µM | 0.437 µM | > 100 µM | 0.452 µM | > 100 µM | – | > 100 µM | 0.918 µM | > 100 µM | – | – |
| COc1ccc(N2C(C)=C(C#N)C34C(=O)N(c5ccccc5)C(=O)C3=C(O)C=CC24O)cc1 (configuration not stated) | 13 µM | 33.8 µM | 2.11 µM | 21.1 µM | 3.15 µM | 14.7 µM | 18.2 µM | 45.6 µM | 13.9 µM | 55.8 µM | 10.3 µM | 24.6 µM | 17.1 µM | 62.5 µM | 13.5 µM | 35.1 µM | 23.3 µM | > 100 µM | 11.4 µM | 28.2 µM |
| CN(C)S(=O)(=O)c1ccc(NC(=O)COC(=O)c2ccc(S(=O)(=O)N3CCCCC3)cc2)cc1 | > 100 µM | > 100 µM | > 100 µM | > 100 µM | > 100 µM | > 100 µM | > 100 µM | > 100 µM | > 100 µM | > 100 µM | > 100 µM | > 100 µM | > 100 µM | > 100 µM | > 100 µM | > 100 µM | – | – | > 100 µM | > 100 µM |
| CN(C)/C=C/c1nnc([N+](=O)[O-])s1 | – | 38.9 µM | – | – | – | 31.4 µM | – | 31.9 µM | – | 29.7 µM | – | 33.1 µM | – | 22 µM | – | 41.9 µM | – | 53.3 µM | – | 24.3 µM |
| COC1(C(=O)N[C@@H](C)c2ccc(-n3cc(F)cn3)nc2)CCC(c2nc(C)cc(Nc3cc(C)[nH]n3)n2)CC1 (some centres not stated) | 2.17 µM | 21.7 µM | – | – | 0.177 µM | 0.665 µM | 1.01 µM | 3.49 µM | 0.436 µM | 1.99 µM | 2.32 µM | 24.2 µM | 3.66 µM | 32.7 µM | 0.222 µM | 11.7 µM | 3.74 µM | 25.5 µM | 3.18 µM | 10.4 µM |
